Source: patent publication EP0156347A2, “Glycosides of resofurin derivatives, method for their preparation and their use in the determination of the activity of glycosidases” (BOEHRINGER MANNHEIM GMBH, priority 1984, dated 1985)

Tests used:
Format in all cases: biochemical
α-Amylase = assay: Determination of α-Amylase activity with reagent paper (Beispiel 21); conditions: filter paper soaked with substrate in Citratpuffer pH 6; sample with amylase plus α- and ß-Glucosidase; after a few minutes
Description: Bestimmung der α-Amylase-Aktivität
Filterpapier wird mit Resorufin-maltoheptaosid (hergestellt gemäß Beispiel 17), gelöst in Citratpuffer, pH 6, getränkt. Das so ernaltene Reagenzpapier wird nacheinander mit der d-Amylase enthaltenden Probe sowie mit a- und ß-Glucosidase versetzt.
Mit Hilfe von Proben mit bekannter d-Amylase-Konzentration läßt sicn eine Eichkurve ermitteln, anhand derer der uhbekannte d-Amylase-Genalt einer Probe bestimmt werden Kann.

ß-D-Galaktosidase = ß-D-Galaktosidase (Escherichia coli, UniProt P00722); assay: Kinetics of the enzymatic hydrolysis (Michaelis-Menten)
Description: Bei der Synthese der Glycoside der Resorufin-Derivate der allgemeinen Formel II entstehen nicht-fluoreszierende Verbindungen, aus denen durch enzymatische Spaltung mit Hilfe der entsprechenden Glycosidasen wieder die fluoreszierenden Resorufin-Derivate freigesetzt werden. Die erfindungsgemäßen fluorogenen Resorufin-nerivate besitzen im Vergleich zu den bisher bekannten Glycosiden anderer chromogener bzw. fluorogener Gruppen sehr vorteilhafte Eigenschaften. Als monosubstituierte Derivate weisen sie eine Kinetik der enzymatischen Hydrolyse auf, die sehr einfach durch die Michaelis-Menten-Beziehung beschrieben werden kann. Für das Resorufin-ß-D-galactopyranosid gilt beispielsweise eine Michaelis-Konstante KM = 0,38 mmol/1. Die Hemmung dieser Hydrolyse durch das natürliche Substrat Lactose ist kompetitiv, so daß für bestimmte Untersuchungen der spezifische Umsatz von Glycosiden der Resorufin-Derivate durch Zugabe von natürlichen Glycosiden, wie Lactose im Falle der ß-D-Galaktosidase, definiert und reversibel verändert werden kann.

freie ß-D-Galactosidase = molecular target: T1, freie ß-D-Galactosidase (Escherichia coli, UniProt P00722); assay: Determination of the activity of free ß-D-Galactosidase, photometric at 578 nm (Beispiel 20); conditions: 0,8 mmol/l substrate, 950 ul Reagenslösung + 50 ul Enzymlösung (ca. 0,08 U/ml), 37° C
T1 construct: purchased
Protocol: (§1) Bestimmung der Aktivität freier und konjugierter ß-D-Galactosidase
(§2) Reagenslösung: • In vorstehend beschriebener Pufferlösung werden 0,8 mmol/1 Resorufin-ß-D-galactopyranosid gelöst.
Enzymlösung: • Handelsübliche ß-D-Galactosidase aus Escherichia coli wird in Puffer gelöst. Die Aktivität dieser Lösung beträgt ca. 0,08 U/ml (bezogen auf die Hersteller-Angaben).
(§3) Die Messung erfolgt photometrisch bei 578 nm. 950 ul Reagenslösung werden jeweils in einer 1-cm-Küvette bei 37 °C mit 50 ul Enzymlösung bzw. mit 50 ul Enzym-Konjugat-Lösung vermischt. Als Maß für die Reaktion wird der Extinktionsanstieg pro Zeiteinheit in [mExt/min] ermittelt.

[1] = molecular target: ß-D-Galactosidase-Antikörper-Konjugat (Escherichia coli, UniProt P00722); assay: Determination of the activity of conjugated ß-D-Galactosidase, photometric at 578 nm (Beispiel 20); conditions: 0,8 mmol/l substrate, 950 ul Reagenslösung + 50 ul Enzym-Konjugat-Lösung, 37° C
Description: as §1, §2
Enzym-Konjugat-Lösung: • Verwendet wird ein ß-D-Galactosidase-Antikörper-Präparat. Die Herstellung solcher Enzym-Antikörper-Konjugate ist bekannt. Sie ist beispielsweise in Biochem. Biophys. Acta 612, 40 - 49 (1980) beschrieben. Das Präparat wird in Puffer so verdünnt, daß sich eine mit der oben beschriebenen Enzymlösung ungefähr vergleichbare Aktivität ergibt.
as §3

ß-D-Galactosidase [2] = molecular target: T2, ß-D-Galactosidase (Escherichia coli, UniProt P00722); assay: Detection of ß-D-Galactosidase with an indicator film / test strip (Beispiel 19); conditions: test strip containing the substrate, dipped in ß-D-Galactosidase solution; 2 Minuten bei Raumtemperatur
Protocol: Nachweis von ß-D-Galactosidase mit Hilfe eines Indlkatorfilms
Zu einer nomogenen Masse werden verarbeitet: • 5 ml einer wäßrigen Lösung mit 0,5 M Kaliumphosphat und • 0,05 M Magnesiumchlorid, pH 7,3 . • 0,13 g Natriumalginat • 8 g einer 50 %igen Dispersion von Polyvinylpropionat • 10 g Kieselgel • 12 ml Wasser • 0,4 g Triton X-100 • 50 mg Resorufin-ß-D-galactopyranosid, in 5 ml Methanol gelöst.
Diese Masse wird auf eine 0,1 mm starke Polycarbonatfolie (poKalon, Fa. Lonza) mit einer Spaltbreite von 0,2 mm aufgetragen. Die Beschichtung wird bei 50° C getrocknet und danach in Stücke von 6 auf 6 mm geschnitten. Diese werden mit Hilfe von Klebeband auf eine 400 um starke Polystyrolfolie aufgeklebt.
Die so erhaltenen Teststreifen werden kurze Zeit in die zu prüfende, ß-D-Galactosidase enthaltende Lösung getaucht. […] Mit Hilfe von Testlösungen mit einem bestimmten, bekannten ß-D-Galactosidase-Gehalt kann man eine Farbskala erhalten, anhand derer der unbekannte Genalt an ß-D-Galactosidase in einer Probe ermittelt werden kann.

ß-D-Galactosidase [3] = molecular target: T2, ß-D-Galactosidase; assay: Determination of ß-D-Galactosidase activity, photometric at 579 nm (Beispiel 18); parameters: purchased; conditions: Extinktionsanstieg pro Zeiteinheit, 950 ul Reagens + 50 ul Enzymlösung (ca. 0,08 U/ml), 37° C, pH 7,3, substrate 0,8 / 3,5 / 1,0 mmol/l in Reagens 1 / 2 / 3
Description: Bestimmung der Aktivität der ß-D-Galactosidase
In der vorstehend beschriebenen Pufferlösung werden 0,8 mmol/1 Resorufin-ß-D-galactopyranosid gelöst.
In der vorstehend beschriebenen Pufferlösung werden 3,5 mmol/1 Resorufin-9-carbonsäure-ß-D-galactopyranosid gelöst.
In der vorstehend beschriebenen Pufferlösung werden 1,0 mmol/1 Resorufin-9-carbonsäuremethylester-ß-D-galactopyranosid gelöst.
Handelsübliche ß-D-Galactosidase aus Escherichia coli wird in der vorstehend genannten Pufferlösung gelöst. Die AKtivität dieser Lösung beträgt ca. 0,08 U/ml (bezogen auf die Hersteller-Angaben).
Die Messung erfolgt photometrisch bei 579 nm.
950 ul Reagens werden in einer 1-cm-Küvette bei 37° C mit 50 ul Enzymlösung vermischt. Als Maß für die Reaktion wird der Extinktionsanstieg pro Zeiteinneit in [mExt/min] ermittelt. Er wird berechnet aus der gemessenen Extinktion durch Division mit der ReaKtionszeit.

T2 sequence (P00722 2-1024): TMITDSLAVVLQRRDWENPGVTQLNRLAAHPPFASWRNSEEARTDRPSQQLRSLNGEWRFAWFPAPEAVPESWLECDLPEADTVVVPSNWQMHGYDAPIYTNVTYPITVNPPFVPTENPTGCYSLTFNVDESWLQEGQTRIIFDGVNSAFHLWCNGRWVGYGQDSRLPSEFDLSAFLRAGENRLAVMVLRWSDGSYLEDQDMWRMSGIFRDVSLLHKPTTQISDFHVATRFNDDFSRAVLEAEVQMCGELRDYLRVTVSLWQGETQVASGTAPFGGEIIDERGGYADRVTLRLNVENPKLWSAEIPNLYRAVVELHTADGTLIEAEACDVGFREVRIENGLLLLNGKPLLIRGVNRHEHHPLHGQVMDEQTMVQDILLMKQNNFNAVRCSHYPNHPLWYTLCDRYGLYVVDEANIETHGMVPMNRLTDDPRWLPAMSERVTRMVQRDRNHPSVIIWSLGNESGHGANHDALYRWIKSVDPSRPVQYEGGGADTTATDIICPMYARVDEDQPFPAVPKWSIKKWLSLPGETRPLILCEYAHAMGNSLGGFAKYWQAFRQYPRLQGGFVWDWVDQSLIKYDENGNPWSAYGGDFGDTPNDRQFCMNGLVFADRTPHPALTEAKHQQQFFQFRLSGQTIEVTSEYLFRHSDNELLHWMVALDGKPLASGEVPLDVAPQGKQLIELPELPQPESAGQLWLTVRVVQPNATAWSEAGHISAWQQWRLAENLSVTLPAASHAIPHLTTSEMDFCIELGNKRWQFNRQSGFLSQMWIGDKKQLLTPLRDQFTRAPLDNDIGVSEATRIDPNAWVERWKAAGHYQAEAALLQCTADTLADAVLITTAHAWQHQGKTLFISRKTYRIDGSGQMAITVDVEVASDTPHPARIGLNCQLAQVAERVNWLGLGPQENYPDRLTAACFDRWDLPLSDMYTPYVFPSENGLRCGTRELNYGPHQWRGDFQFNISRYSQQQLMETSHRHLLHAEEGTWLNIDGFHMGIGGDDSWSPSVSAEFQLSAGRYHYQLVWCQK
ß-D-Galaktosidase, sequence (P00722 2-1024): as above
ß-D-Galactosidase-Antikörper-Konjugat, sequence (P00722 2-1024): as above
T1 sequence (P00722 2-1024): as above

O=c1ccc2nc3ccc(OC4OC(CO)C(OC5OC(CO)C(OC6OC(CO)C(OC7OC(CO)C(OC8OC(CO)C(OC9OC(CO)C(OC%10OC(CO)C(O)C(O)C%10O)C(O)C9O)C(O)C8O)C(O)C7O)C(O)C6O)C(O)C5O)C(O)C4O)cc3oc-2c1 (stereo not drawn) [Beispiel 17, Resorufin-maltoheptaosid]
Rotfärbung (α-Amylase): deutlich sicntbare Rotfärbung

OC[C@H]1O[C@@H](O[C@H]2[C@H](O)[C@@H](O)C(O)O[C@@H]2CO)[C@H](O)[C@@H](O)[C@H]1O (stereo partly drawn) [Lactose, reference compound]
Hemmung dieser Hydrolyse (ß-D-Galaktosidase; inhibition of the hydrolysis of Resorufin-ß-D-galactopyranosid by the natural substrate): kompetitiv

O=c1ccc2nc3ccc(O[C@@H]4O[C@H](CO)[C@H](O)[C@H](O)[C@H]4O)cc3oc-2c1 [Reagens 1, Resorufin-ß-D-galactopyranosid]
Km (ß-D-Galaktosidase; read-out: Michaelis-Konstante KM, enzymatic hydrolysis of the substrate): 380 µM | Extinktionsanstieg pro Zeiteinheit, Reaktion mit der freien ß-D-Galactosidase (freie ß-D-Galactosidase): 85 mExt/min | Extinktionsanstieg pro Zeiteinheit, Reaktion mit ß-D-Galactosidase-Antikörper-Konjugat [1]: 92 mExt/min | Reaktionsfarbe (ß-D-Galactosidase [2]): rote Reaktionsfarbe | Reaktion (ß-D-Galactosidase [3]): 85 mExt/min

Resorufin-1-carbonsäuremethylester [Beispiel 3]
Reaktion (ß-D-Galactosidase [3]): 76 mExt/min

Resorufin-ß-D-glucosid [Beispiel 2]
Reaktion (ß-D-Galactosidase [3]): 46 mExt/min
